The experiment deals with Endogenous Huntingtin Protein. Nature of the experiment: Endogenous Huntingtin Protein Assay (ELISA-based MSD electrochemiluminescence). Format: cell-based. The following applies: Table 1. Here is the method:
Compounds of Formula (I) or Formula (II) were tested using the Meso Scale Discovery (MSD) Assay provided in International Application No. PCT/US2016/066042, filed on Dec. 11, 2016 and claiming priority to U.S. Provisional Application 62/265,652 filed on Dec. 10, 2015, the entire contents of which are incorporated herein by reference.
The Endogenous Huntingtin Protein assay used in Example 1 was developed using the ELISA-based MSD electrochemiluminescence assay platform.
Endogenous Huntingtin Protein Assay
Meso Scale Discovery (MSD) 96-well or 384-well plates were coated overnight at 4° C. with MW1 (expanded polyglutamine) or MAB2166 monoclonal antibody (for capture) at a concentration of 1 μg/mL in PBS (30 μL per well). Plates were then washed three times with 300 μL wash buffer (0.05% Tween-20 in PBS) and blocked (100 μL blocking buffer; 5% BSA in PBS) for 4-5 hours at room temperature with rotational shaking and then washed three times with wash buffer.
Samples (25 μL) were transferred to the antibody-coated MSD plate and incubated overnight at 4° C. After removal of the lysates, the plate was washed three times with wash buffer, and 25 μL of #5656S (Cell signaling; rabbit monoclonal) secondary antibody (diluted to 0.25 μg/mL in 0.05% Tween-20 in blocking buffer) was added to each well and incubated with shaking for 1 Hour at room temperature. Following incubation with the secondary antibody, the wells were rinsed with wash buffer after which 25 μL of goat anti-rabbit SULFO TAG secondary detection antibody (required aspect of the MSD system) (diluted to 0.25 μg/mL in 0.05% Tween-20 in blocking buffer) was added to each well and incubated with shaking for 1 hour at room temperature. After rinsing three times with wash buffer, 150 μL of read buffer T with surfactant (MSD) were added to each empty well, and the plate was imaged on a SI 6000 imager (MSD) according to manufacturers' instructions provided for 96- or 384-well plates.

Molecules are shown by their SMILES.

As usually defined, the IC50 is the concentration at which inhibition is half-maximal. Low values mean inhibition by little substance, high ones a need for much substance. Regarding `Cn1cc2cc(-c3cc4sc(C5CCNCC5)nc4cn3)cc(C(F)(F)F)c2n1` [Compound 60, 6-[2-methyl-7-(trifluoromethyl)-2H-indazol-5-yl]-2-(piperidin-4-yl)[1,3]thiazolo[4,5-c]pyridine], the concentration for half-maximal inhibition (IC50) was 0.1 to 0.5 µM. As to `Cc1cn2nc(-c3cnc4nc(C5CCNCC5)sc4c3)cc(C)c2n1` [Compound 61, 6-(2,8-dimethylimidazo[1,2-b]pyridazin-6-yl)-2-(piperidin-4-yl)[1,3]thiazolo[4,5-b]pyridine], the IC50 is at most 0.1 µM. In the case of `CN(c1nc2ccc(-c3cc(C#N)c4nn(C)cc4c3)cc2s1)C1CC(C)(C)NC(C)(C)C1` [Compound 62, 2-methyl-5-{2-[methyl(2,2,6,6-tetramethylpiperidin-4-yl)amino]-1,3-benzothiazol-6-yl}-2H-indazole-7-carbonitrile] it was at most 0.1 µM. `Cc1cn2cc(-c3ccc4nc(N(C)C5CC(C)(C)NC(C)(C)C5)sc4c3)ccc2n1` [Compound 63, N-methyl-6-(2-methylimidazo[1,2-a]pyridin-6-yl)-N-(2,2,6,6-tetramethylpiperidin-4-yl)-1,3-benzothiazol-2-amine]: the IC50 lay in the range of 0.1 to 0.5 µM.

`Cn1cc2cc(-c3ccc4nc(OC5CC(C)(C)NC(C)(C)C5)sc4c3)ccc2n1` [Compound 64, 6-(2-methyl-2H-indazol-5-yl)-2-[(2,2,6,6-tetramethylpiperidin-4-yl)oxy]-1,3-benzothiazole]: the half-maximal inhibitory concentration (IC50) was in the range of 1 to 3 µM. The molecule `CC1CC(c2nc3ccc(-c4ccc5nn(C)cc5c4)cc3s2)=CCN1` (stereo not drawn) [Compound 65, 6-(2-methyl-2H-indazol-5-yl)-2-(2-methyl-1,2,3,6-tetrahydropyridin-4-yl)-1,3-benzothiazole] showed a concentration for half-maximal inhibition (IC50) of 0.1 to 0.5 µM.

`Cc1cc(-c2ccc3nc(N(C)C4CCNC(C)C4)sc3c2)cc2cn(C)nc12` (stereo not drawn) [Compound 66, 6-(2,7-dimethyl-2H-indazol-5-yl)-N-methyl-N-(2-methylpiperidin-4-yl)-1,3-benzothiazol-2-amine] had an IC50 of at most 0.1 µM. In the case of `CC1C=C(c2nc3ccc(-c4ccc5nn(C)cc5c4)cc3s2)CCN1` (stereo not drawn) [Compound 67, 6-(2-methyl-2H-indazol-5-yl)-2-(6-methyl-1,2,3,6-tetrahydropyridin-4-yl)-1,3-benzothiazole] it was 1 to 3 µM; in that of `Cc1cc(-c2ccc3nc(OC4CC(C)(C)NC(C)(C)C4)sc3c2)cc2cn(C)nc12` [Compound 68, 6-(2,7-dimethyl-2H-indazol-5-yl)-2-[(2,2,6,6-tetramethylpiperidin-4-yl)oxy]-1,3-benzothiazole], 1 to 3 µM. Turning to `Cc1nc2ccc(-c3cc(F)c4nc(C5CCNCC5)sc4c3)cc2o1` [Compound 70, 6-[4-fluoro-2-(piperidin-4-yl)-1,3-benzothiazol-6-yl]-2-methyl-1,3-benzoxazole], the concentration for half-maximal inhibition (IC50) was at most 0.1 µM.

Turning to `Cc1cn2cc(-c3cc(F)c4nc(C5=CCNCC5)sc4c3)cc(C)c2n1` [Compound 71, 6-(2,8-dimethylimidazo[1,2-a]pyridin-6-yl)-4-fluoro-2-(1,2,3,6-tetrahydropyridin-4-yl)-1,3-benzothiazole], the half-inhibitory concentration (IC50) was in the range of 0.1 to 0.5 µM.

Turning to `Cn1cc2cc(-c3cc(F)c4nc(C5=CCNCC5)sc4c3)ccc2n1` [Compound 72, 4-fluoro-6-(2-methyl-2H-indazol-5-yl)-2-(1,2,3,6-tetrahydropyridin-4-yl)-1,3-benzothiazole], the IC50 was in the range of 0.1 to 0.5 µM. The same measure for `Cn1cc2cc(-c3cc(F)c4nc(C5CCNCC5)sc4c3)ccc2n1` [Compound 73, 4-fluoro-6-(2-methyl-2H-indazol-5-yl)-2-(piperidin-4-yl)-1,3-benzothiazole]: at most 0.1 µM.

For the molecule `Cn1cc2cc(-c3cc4sc(C5CCNCC5)nc4cn3)cc(C#N)c2n1` [Compound 74, 2-methyl-5-[2-(piperidin-4-yl)[1,3]thiazolo[4,5-c]pyridin-6-yl]-2H-indazole-7-carbonitrile], the IC50 was at most 0.1 µM. The same measure for `CCc1cc(-c2cc3sc(C4CCNCC4)nc3cn2)cc2cn(C)nc12` [Compound 75, 6-(7-ethyl-2-methyl-2H-indazol-5-yl)-2-(piperidin-4-yl)[1,3]thiazolo[4,5-c]pyridine]: 0.1 to 0.5 µM; for `Cn1cc2cc(-c3cc4sc(C5CCNCC5)nc4cn3)cc(F)c2n1` [Compound 76, 6-(7-fluoro-2-methyl-2H-indazol-5-yl)-2-(piperidin-4-yl)[1,3]thiazolo[4,5-c]pyridine]: 0.1 to 0.5 µM. `Cc1cn2cc(-c3cc4sc(C5CCNCC5)nc4cn3)ccc2n1` [Compound 77, 6-(2-methylimidazo[1,2-a]pyridin-6-yl)-2-(piperidin-4-yl)[1,3]thiazolo[4,5-c]pyridine] gave a half-maximal inhibitory concentration (IC50) of 0.1 to 0.5 µM. The molecule `Fc1cc(-c2ccc3[nH]ncc3n2)cc2sc(C3CCNCC3)nc12` [Compound 78, 5-[4-fluoro-2-(piperidin-4-yl)-1,3-benzothiazol-6-yl]-1H-pyrazolo[4,3-b]pyridine] showed an IC50 of 0.5 to 1 µM. Take `Cn1cc2nc(-c3cc(F)c4nc(C5CCNCC5)sc4c3)ccc2n1` [Compound 79, 5-[4-fluoro-2-(piperidin-4-yl)-1,3-benzothiazol-6-yl]-2-methyl-2H-pyrazolo[4,3-b]pyridine]: the IC50 was at most 0.1 µM.

With `CN(c1nc2ccc(-c3cc(C4CC4)c4nn(C)cc4c3)cc2s1)C1CC(C)(C)NC(C)(C)C1` [Compound 80, 6-(7-cyclopropyl-2-methyl-2H-indazol-5-yl)-N-methyl-N-(2,2,6,6-tetramethylpiperidin-4-yl)-1,3-benzothiazol-2-amine], the IC50 lay within 1 to 3 µM. On to `CC1CC(N(C)c2nc3ccc(-c4ccc5nn(C)cc5c4)cc3s2)CCN1` (stereo not drawn) [Compound 81, N-methyl-6-(2-methyl-2H-indazol-5-yl)-N-(2-methylpiperidin-4-yl)-1,3-benzothiazol-2-amine], for which the half-inhibitory concentration (IC50) lay within 0.1 to 0.5 µM.

With `Cc1cn2cc(-c3ccc4nc(C5CCNCC5)sc4c3)ccc2n1` [Compound 82, 6-(2-methylimidazo[1,2-a]pyridin-6-yl)-2-(piperidin-4-yl)-1,3-benzothiazole], the IC50 lay within 0.1 to 0.5 µM. `Cn1cc2cc(-c3ccc4nc(C5CCNCC5)sc4c3)cc(F)c2n1` [Compound 83, 6-(7-fluoro-2-methyl-2H-indazol-5-yl)-2-(piperidin-4-yl)-1,3-benzothiazole] returned a half-inhibitory concentration (IC50) of at most 0.1 µM. Turning to `Cn1cc2cc(-c3ccc4nc(C5CCNCC5)sc4c3)cc(C#N)c2n1` [Compound 84, 2-methyl-5-[2-(piperidin-4-yl)-1,3-benzothiazol-6-yl]-2H-indazole-7-carbonitrile], the IC50 was at most 0.1 µM. As for `CCc1cc(-c2ccc3nc(C4CCNCC4)sc3c2)cc2cn(C)nc12` [Compound 85, 6-(7-ethyl-2-methyl-2H-indazol-5-yl)-2-(piperidin-4-yl)-1,3-benzothiazole], the half-maximal inhibitory concentration (IC50) lay within 0.1 to 0.5 µM. `CN(c1nc2cnc(-c3cc(F)c4nn(C)cc4c3)cc2s1)C1CC(C)(C)NC(C)(C)C1` [Compound 86, 6-(7-fluoro-2-methyl-2H-indazol-5-yl)-N-methyl-N-(2,2,6,6-tetramethylpiperidin-4-yl)[1,3]thiazolo[4,5-c]pyridin-2-amine] gave an IC50 of at most 0.1 µM. Take `Cc1cn2cc(-c3cc4sc(N(C)C5CC(C)(C)NC(C)(C)C5)nc4cn3)ccc2n1` [Compound 87, N-methyl-6-(2-methylimidazo[1,2-a]pyridin-6-yl)-N-(2,2,6,6-tetramethylpiperidin-4-yl)[1,3]thiazolo[4,5-c]pyridin-2-amine]: the half-maximal inhibitory concentration (IC50) was at most 0.1 µM.

The record behind these values is patent publication US12139499B2, “Heteroaryl compounds for treating Huntington's disease” (PTC THERAPEUTICS, INC., priority 2018, dated 2024).
